≈ marks a conversion by molar mass, not a printed value.
System: Nematoda
Assay: Nematocidal activity
Type: functional

Compound | LC50
CC(=O)O[C@H](C[C@H](C)O)[C@@H](C)[C@@H](O)[C@@H](C)C[C@H](C)[C@@H]1OC(=O)[C@H](C)NC(=O)C[C@@H](O)C[C@H](O)[C@H](C)C[C@H]1C | 0.5 µg/mL (≈ 0.916 µM)
CC(=O)O[C@@H](C)C[C@@H](O)[C@@H](C)[C@@H](O)[C@@H](C)C[C@H](C)[C@@H]1OC(=O)[C@H](C)NC(=O)C[C@@H](O)C[C@H](O)[C@H](C)C[C@H]1C | 0.5 µg/mL (≈ 0.916 µM)
